molecular target: Polθ theta (1-899) (hPolQ) (Homo sapiens (Human), UniProt O75417); experiment: Biological Assay 1: Polθ ATPase activity, NADH oxidation-coupled enzymatic assay (10 nM enzyme, 30 min); format: biochemical; conditions: Polθ (1-899) 10 nM, 100 μM ATP, 300 nM dT50 ssDNA; Examples 1 to 268; read-out: ATPase NADH coupling:Standard Screening:hPolQ IC50
Procedure, shortened: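 ATP turnover was coupled to NADH oxidation and followed at 340 nm every minute for 30 min. Enzyme (residues 1-899, 10 nM) sat with compound for 15 min at room temperature before an equal-volume addition of 100 μM ATP plus 300 nM dT50 ssDNA. Progress-curve slopes from 10-point dilutions were fitted by a four-parameter model.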

Chain of Polθ theta (1-899) (hPolQ) (O75417 1-899): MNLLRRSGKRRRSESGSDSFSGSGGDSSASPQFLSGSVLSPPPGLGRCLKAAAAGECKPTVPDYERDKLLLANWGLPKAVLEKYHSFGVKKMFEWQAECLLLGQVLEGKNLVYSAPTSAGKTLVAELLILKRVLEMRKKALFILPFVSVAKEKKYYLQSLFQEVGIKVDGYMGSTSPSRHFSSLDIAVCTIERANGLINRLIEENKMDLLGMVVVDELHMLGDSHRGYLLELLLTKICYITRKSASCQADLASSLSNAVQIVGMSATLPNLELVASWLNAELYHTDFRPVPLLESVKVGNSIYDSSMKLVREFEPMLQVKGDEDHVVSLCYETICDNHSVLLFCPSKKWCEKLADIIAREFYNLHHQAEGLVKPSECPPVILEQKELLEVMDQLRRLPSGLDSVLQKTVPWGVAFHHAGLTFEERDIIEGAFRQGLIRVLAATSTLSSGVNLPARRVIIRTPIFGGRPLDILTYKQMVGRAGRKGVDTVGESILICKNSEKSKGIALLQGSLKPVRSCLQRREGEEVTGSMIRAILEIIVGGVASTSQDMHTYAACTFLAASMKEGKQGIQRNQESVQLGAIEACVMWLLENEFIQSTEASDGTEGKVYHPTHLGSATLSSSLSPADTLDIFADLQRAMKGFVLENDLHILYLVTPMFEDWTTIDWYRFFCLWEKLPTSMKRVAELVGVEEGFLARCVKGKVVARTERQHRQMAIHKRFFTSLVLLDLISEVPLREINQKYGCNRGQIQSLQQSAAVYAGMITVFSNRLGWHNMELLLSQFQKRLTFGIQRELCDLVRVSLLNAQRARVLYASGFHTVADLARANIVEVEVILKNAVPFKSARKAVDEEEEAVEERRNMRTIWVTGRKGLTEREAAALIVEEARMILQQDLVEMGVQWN

Structure (SMILES) | IC50
COc1cccc(F)c1-c1cc(C)ncc1C(=O)Nc1nnc(OCC23CCC(O)(CC2)C3)s1 [Example 112, 4-(2-fluoro-6-methoxyphenyl)-N-(5-((4-hydroxybicyclo(2.2.1)heptan-1-yl)methoxy)-1,3,4-thiadiazol-2-yl)-6-methylpyridine-3-carboxamide] | ≤ 200 nM
COc1cnc(Cl)cc1-c1cc(C)ncc1C(=O)Nc1nnc(OCc2ccc(OC(F)F)cn2)s1 [Example 113, 2′-chloro-N-(5-((5-(difluoromethoxy)pyridin-2-yl)methoxy)-1,3,4-thiadiazol-2-yl)-5′-methoxy-6-methyl-(4,4′-bipyridine)-3-carboxamide] | ≤ 200 nM
COc1cccc(F)c1-c1cc(C)ncc1C(=O)Nc1nnc(OCc2ccc([S@](C)(=N)=O)cc2)s1 [Example 114, 4-(2-fluoro-6-methoxyphenyl)-6-methyl-N-(5-((4-((R)—S-methylsulfonimidoyl)benzyl)oxy)-1,3,4-thiadiazol-2-yl)nicotinamide] | ≤ 200 nM
COc1cccc(F)c1-c1cc(C)ncc1C(=O)Nc1nnc(OCc2ccc3c(n2)CCC[C@@H]3O)s1 [Example 116, 4-(2-fluoro-6-methoxyphenyl)-N-(5-(((S)-5-hydroxy-5,6,7,8-tetrahydroquinolin-2-yl)methoxy)-1,3,4-thiadiazol-2-yl)-6-methylnicotinamide] | ≤ 200 nM
COc1cnc(C)cc1-c1cc(C)ncc1C(=O)Nc1nnc(OC[C@H]2C[C@@H](O)C2)s1 [Example 118, N-(5-(((1s,3s)-3-hydroxycyclobutyl)methoxy)-1,3,4-thiadiazol-2-yl)-5′-methoxy-2′,6-dimethyl-[4,4′-bipyridine]-3-carboxamide] | ≤ 200 nM
COc1ccc(Cl)cc1-c1cnncc1C(=O)Nc1nnc(OCC23CCC(O)(CC2)CC3)s1 [Example 121, 5-(5-chloro-2-methoxyphenyl)-N-(5-((4-hydroxybicyclo(2.2.2)octan-1-yl)methoxy)-1,3,4-thiadiazol-2-yl)pyridazine-4-carboxamide] | 200 to 500 nM
COc1ccc(Cl)cc1-c1cc(C)ncc1C(=O)Nc1nnc(OCc2ccc([S@](C)(=N)=O)cc2)s1 [Example 122, (R)-4-(5-chloro-2-methoxyphenyl)-6-methyl-N-(5-((4-(S-methylsulfonimidoyl)benzyl)oxy)-1,3,4-thiadiazol-2-yl)nicotinamide] | ≤ 200 nM
COc1ccc(Cl)cc1-c1cc(C)ncc1C(=O)Nc1nnc(OCc2ccc([S@@](C)(=N)=O)cc2)s1 [Example 123, (S)-4-(5-chloro-2-methoxyphenyl)-6-methyl-N-(5-((4-(S-methylsulfonimidoyl)benzyl)oxy)-1,3,4-thiadiazol-2-yl)nicotinamide] | ≤ 200 nM
COC(C)(C)c1ccc(COc2nnc(NC(=O)c3cnc(C)cc3-c3c(F)cccc3OC(F)F)s2)nc1 [Example 124, 4-(2-(difluoromethoxy)-6-fluorophenyl)-N-(5-((5-(2-methoxypropan-2-yl)pyridin-2-yl)methoxy)-1,3,4-thiadiazol-2-yl)-6-methylpyridine-3-carboxamide] | ≤ 200 nM
COc1cnc(Cl)cc1-c1cc(C)ncc1C(=O)Nc1nnc(OCc2ccc(C(C)(C)OC)cn2)s1 [Example 125, 2′-chloro-5′-methoxy-N-(5-((5-(2-methoxypropan-2-yl)pyridin-2-yl)methoxy)-1,3,4-thiadiazol-2-yl)-6-methyl-(4,4′-bipyridine)-3-carboxamide] | ≤ 200 nM
COc1cnc(C)cc1-c1cc(C)ncc1C(=O)Nc1nnc(OCc2ccc(C(C)(C)OC)cn2)s1 [Example 126, 5′-methoxy-N-(5-((5-(2-methoxypropan-2-yl)pyridin-2-yl)methoxy)-1,3,4-thiadiazol-2-yl)-2′,6-dimethyl-(4,4′-bipyridine)-3-carboxamide] | ≤ 200 nM
COc1cnc(C)cc1-c1cc(C)ncc1C(=O)Nc1nnc(OC[C@H]2CC[C@@H](O)CC2)s1 [Example 127, N-(5-(((1s,4s)-4-hydroxycyclohexyl)methoxy)-1,3,4-thiadiazol-2-yl)-5′-methoxy-2′,6-dimethyl-[4,4′-bipyridine]-3-carboxamide] | ≤ 200 nM
COc1cnc(Cl)cc1-c1cc(C)ncc1C(=O)Nc1nnc(OC[C@H]2CC[C@@H](O)CC2)s1 [Example 128, 2′-chloro-N-(5-(((1s,4s)-4-hydroxycyclohexyl)methoxy)-1,3,4-thiadiazol-2-yl)-5′-methoxy-6-methyl-[4,4′-bipyridine]-3-carboxamide] | ≤ 200 nM
COc1cccc(F)c1-c1cc(C)ncc1C(=O)Nc1nnc(OCc2ccc(C3CCO3)cn2)s1 (stereo not shown) [Example 130, 4-(2-fluoro-6-methoxyphenyl)-6-methyl-N-(5-((5-(oxetan-2-yl)pyridin-2-yl)methoxy)-1,3,4-thiadiazol-2-yl)nicotinamide] | ≤ 200 nM
COc1cccc(F)c1-c1cc(C)ncc1C(=O)Nc1nnc(OCC23CC(CO)(C2)C3)s1 [Example 132, 4-(2-fluoro-6-methoxyphenyl)-N-(5-((3-(hydroxymethyl)bicyclo(1.1.1)pentan-1-yl)methoxy)-1,3,4-thiadiazol-2-yl)-6-methylpyridine-3-carboxamide] | ≤ 200 nM

Next, values leading:

IC50 | Structure (SMILES)
≤ 200 nM | COc1cccc(F)c1-c1cc(C)ncc1C(=O)Nc1nnc(OCc2ccc([S@@](C)(=N)=O)cc2)s1 [Example 115, 4-(2-fluoro-6-methoxyphenyl)-6-methyl-N-(5-((4-((S)—S-methylsulfonimidoyl)benzyl)oxy)-1,3,4-thiadiazol-2-yl)nicotinamide]
≤ 200 nM | COc1cccc(F)c1-c1cc(C)ncc1C(=O)Nc1nnc(OCc2ccc3c(n2)CCC[C@H]3O)s1 [Example 117, 4-(2-fluoro-6-methoxyphenyl)-N-(5-(((R)-5-hydroxy-5,6,7,8-tetrahydroquinolin-2-yl)methoxy)-1,3,4-thiadiazol-2-yl)-6-methylnicotinamide]
200 to 500 nM | COc1cccc(F)c1-c1cc(C)ncc1C(=O)Nc1nnc(OCc2cnc(C(C)(C)O)cn2)s1 [Example 119, 4-(2-fluoro-6-methoxyphenyl)-N-(5-((5-(2-hydroxypropan-2-yl)pyrazin-2-yl)methoxy)-1,3,4-thiadiazol-2-yl)-6-methylnicotinamide]
200 to 500 nM | COc1cccnc1-c1cc(C)ncc1C(=O)Nc1nnc(OCc2ccc(Cl)cn2)s1 [Example 120, N-(5-((5-chloropyridin-2-yl)methoxy)-1,3,4-thiadiazol-2-yl)-3-methoxy-6′-methyl-(2,4′-bipyridine)-3′-carboxamide]
≤ 200 nM | COc1cnc(Cl)cc1-c1cc(C)ncc1C(=O)Nc1nnc(OC[C@H]2CC[C@H](O)CC2)s1 [Example 129, 2′-chloro-N-(5-(((1r,4r)-4-hydroxycyclohexyl)methoxy)-1,3,4-thiadiazol-2-yl)-5′-methoxy-6-methyl-[4,4′-bipyridine]-3-carboxamide]
≤ 200 nM | COc1cnc(Cl)cc1-c1cc(C)ncc1C(=O)Nc1nnc(OCC2(C)CCOC2)s1 (stereo not shown) [Example 131, 2′-chloro-5′-methoxy-6-methyl-N-(5-((3-methyloxolan-3-yl)methoxy)-1,3,4-thiadiazol-2-yl)-(4,4′-bipyridine)-3-carboxamide]
≤ 200 nM | COc1ccc(Cl)cc1-c1cc(C)ncc1C(=O)Nc1nnc(OCc2cnc(CO)cn2)s1 [Example 133, 4-(5-chloro-2-methoxyphenyl)-N-(5-((5-(hydroxymethyl)pyrazin-2-yl)methoxy)-1,3,4-thiadiazol-2-yl)-6-methylpyridine-3-carboxamide]

Reference: patent US20250325552A1, “SUBSTITUTED THIADIAZOLYL DERIVATIVES AS DNA POLYMERASE THETA INHIBITORS” (IDEAYA Biosciences, Inc., priority 2020, published 2025)
